Reference: DBAASP
In brackets after ≈: the same amount, converted by molar mass. Several values for one entry are separate records, joined by “and”; a condition that tells them apart may be missing. Equal entries are not always repeated.

How the values were obtained:
Experiment in all cases: ≥ marks a high value that may be exact or a test limit, other limits are often not marked, values filed in µg/mL are converted to µM
[1] = tested on: Legionella pneumophila Lens
[2] = tested on: Lacticaseibacillus rhamnosus 1.0911
[3] = tested on: Lacticaseibacillus rhamnosus 1.0936
[4] = tested on: Salmonella enterica subsp. enterica serovar Typhimurium ATCC 14028
[5] = tested on: Lacticaseibacillus rhamnosus 1.0385
[6] = tested on: Staphylococcus aureus ATCC 43300
[7] = tested on: Salmonella enterica subsp. enterica serovar Pullorum C79-13
[8] = tested on: Pseudomonas aeruginosa ATCC 27853
Escherichia coli UB1005 = tested on: Escherichia coli UB1005
Escherichia coli K99 = tested on: Escherichia coli K99
[9] = tested on: Salmonella enterica subsp. enterica serovar Typhimurium C77-31
[10] = tested on: Lactiplantibacillus plantarum 8014
[11] = tested on: Escherichia coli ATCC 25922
Escherichia coli K88 = tested on: Escherichia coli K88
[12] = tested on: Lacticaseibacillus rhamnosus 7469
[13] = tested on: Escherichia coli ATCC 11775
[14] = tested on: Micrococcus luteus ATCC 4698
[15] = tested on: Enterococcus faecium CCT 5079
[16] = tested on: Bacillus cereus ATCC 11778
[17] = tested on: Staphylococcus aureus ATCC 25923
[18] = tested on: Streptococcus mutans AU159
[19] = tested on: Staphylococcus aureus CCT 2580
[20] = tested on: Escherichia coli CCT 1457
[21] = tested on: Enterococcus hirae ATCC 10541
[22] = tested on: Candida albicans ATCC 90028
[23] = tested on: Streptococcus pneumoniae ATCC 11733
[24] = tested on: Bacillus thuringiensis ATCC 10792
[25] = tested on: Staphylococcus aureus CCT 6538
[26] = tested on: Pseudomonas aeruginosa ATCC 15422
[27] = tested on: Salmonella enterica subsp. enterica serovar Choleraesuis ATCC 10708
[28] = tested on: Staphylococcus epidermidis ATCC 12228
[29] = tested on: Pseudomonas aeruginosa ATCC 13388
Escherichia coli = tested on: Escherichia coli
Bacillus subtilis = tested on: Bacillus subtilis
[30] = tested on: Klebsiella pneumoniae ATCC 13883
[31] = tested on: Enterococcus faecalis ATCC 29212
[32] = tested on: Streptococcus pyogenes ATCC 19615

SMILES | MIC [1] | MIC [4] | MIC [8] | MIC [11] | MIC [13] | MIC [14] | MIC [15] | MIC [16] | MIC [17] | MIC [18] | MIC [19] | MIC [20] | MIC [21] | MIC [23] | MIC [24] | MIC [25] | MIC [26] | MIC [27] | MIC [28] | MIC [29] | also measured
CC[C@H](C)[C@H](NC(=O)[C@H](CC(C)C)NC(=O)[C@H](CC(=O)O)NC(=O)[C@@H](NC(=O)[C@@H](NC(=O)[C@H](Cc1ccccc1)NC(=O)[C@H](CCC(N)=O)NC(=O)[C@@H](N)CCSC)[C@@H](C)CC)[C@@H](C)O)C(=O)N[C@@H](CCCCN)C(=O)N[C@@H](CCCCN)C(=O)N[C@@H](C)C(=O)N[C@H](C(=O)N[C@@H](CC(=O)O)C(=O)N[C@@H](Cc1ccccc1)C(=O)N[C@@H](Cc1ccccc1)C(=O)N[C@@H](CCCCN)C(=O)NCC(=O)N[C@@H](CC(C)C)C(=O)N[C@H](C(=O)NCC(=O)N[C@@H](CC(N)=O)C(=O)N[C@@H](CCCCN)C(=O)O)C(C)C)C(C)C [MQFITDLIKKAVDFFKGLVGNK] | 2.08 µM (≈ 5.23 µg/mL) | – | – | – | – | – | – | – | – | – | – | – | – | – | – | – | – | – | – | – | –
NC(=O)[C@H](CCCN=C(N)N)NC(=O)[C@H](CCCN=C(N)N)NC(=O)[C@H](Cc1c[nH]c2ccccc12)NC(=O)[C@H](Cc1c[nH]c2ccccc12)NC(=O)[C@H](Cc1c[nH]c2ccccc12)NC(=O)[C@@H](N)CCCN=C(N)N [RWWWRR] | – | > 64 µM | > 64 µM | 23.9 µM and 32 µM | – | – | – | – | – | – | – | – | – | – | – | – | – | – | – | – | MIC [2]: ≥ 64 µM; MIC [3]: ≥ 64 µM; MIC [5]: ≥ 64 µM; MIC [6]: 8 µM (≈ 8.35 µg/mL); MIC [7]: ≥ 64 µM; MIC (Escherichia coli UB1005): ≥ 32 µM; MIC (Escherichia coli K99): ≥ 32 µM; MIC [9]: ≥ 64 µM; MIC [10]: ≥ 64 µM; MIC (Escherichia coli K88): ≥ 32 µM; MIC [12]: ≥ 64 µM
CC[C@H](C)[C@H](N)C(=O)N[C@@H](CC(N)=O)C(=O)N[C@@H](Cc1c[nH]c2ccccc12)C(=O)N[C@@H](CCCCN)C(=O)N[C@@H](CCCCN)C(=O)N[C@H](C(=O)N[C@@H](C)C(=O)N[C@@H](CCCCN)C(=O)N[C@@H](CCCCN)C(=O)N[C@H](C(=O)N[C@@H](C)C(=O)NCC(=O)N[C@@H](CCSC)C(=O)N[C@@H](CC(C)C)C(N)=O)C(C)C)[C@@H](C)CC [INWKKIAKKVAGML] | – | 1.25 µM (≈ 2 µg/mL) | – | 2.5 µM (≈ 4 µg/mL) | 2.5 µM (≈ 4 µg/mL) | 0.625 µM (≈ 0.999 µg/mL) | 0.625 µM (≈ 0.999 µg/mL) | 10 µM (≈ 16 µg/mL) | 1.25 µM (≈ 2 µg/mL) | 1.25 µM (≈ 2 µg/mL) | 1.25 µM (≈ 2 µg/mL) | 0.625 µM (≈ 0.999 µg/mL) | 5 µM (≈ 8 µg/mL) | 0.625 µM (≈ 0.999 µg/mL) | 19.4 µM (≈ 31 µg/mL) | 0.625 µM (≈ 0.999 µg/mL) | 5 µM (≈ 8 µg/mL) | 5 µM (≈ 8 µg/mL) | 0.625 µM (≈ 0.999 µg/mL) | 10 µM (≈ 16 µg/mL) | MIC [22]: 9.76 µM (≈ 15.6 µg/mL)
CC(C)C[C@H](NC(=O)[C@H](Cc1c[nH]c2ccccc12)NC(=O)[C@H](CCC(N)=O)NC(=O)[C@@H](NC(=O)[C@H](CCC(N)=O)NC(=O)[C@@H]1CCCN1C(=O)[C@H](CCC(=O)O)NC(=O)[C@H](CCCN=C(N)N)NC(=O)[C@@H](N)CCC(N)=O)C(C)C)C(=O)N[C@@H](CCC(=O)O)C(=O)N[C@@H](CCC(N)=O)C(=O)N[C@@H](CCC(N)=O)C(=O)N[C@H](C(=O)N[C@@H](C)C(=O)N[C@@H](CCCCN)C(=O)N[C@@H](CCCN=C(N)N)C(=O)N[C@@H](CCCN=C(N)N)C(=O)N[C@H](C(=O)N[C@@H](CCCCN)C(=O)N[C@@H](CCCN=C(N)N)C(=O)O)[C@@H](C)O)C(C)C [QREPQVQWLEQQVAKRRTKR] | – | > 100 µM | > 100 µM | – | – | – | – | – | > 100 µM | – | – | – | – | – | – | – | – | – | – | – | MIC (Escherichia coli): > 100 µM; MIC (Bacillus subtilis): ≥ 100 µM; MIC [30]: ≥ 100 µM; MIC [31]: > 100 µM; MIC [32]: ≥ 100 µM
CC[C@H](C)[C@H](N)C(=O)N[C@@H](CC(N)=O)C(=O)N[C@@H](Cc1c[nH]c2ccccc12)C(=O)N[C@@H](CC(C)C)C(=O)N[C@@H](C)C(=O)N[C@H](C(=O)N[C@@H](C)C(=O)N[C@@H](C)C(=O)N[C@@H](C)C(=O)N[C@H](C(=O)N[C@@H](C)C(=O)NCC(=O)N[C@@H](CCSC)C(=O)N[C@@H](CC(C)C)C(N)=O)C(C)C)[C@@H](C)CC [INWLAIAAAVAGML] | – | > 354 µM | – | > 354 µM | ≥ 354 µM | ≥ 354 µM | ≥ 354 µM | ≥ 354 µM | > 354 µM | ≥ 354 µM | ≥ 354 µM | ≥ 354 µM | ≥ 354 µM | ≥ 354 µM | ≥ 354 µM | ≥ 354 µM | ≥ 354 µM | ≥ 354 µM | > 354 µM | ≥ 354 µM | –
CC[C@H](C)[C@H](NC(=O)[C@H](Cc1ccccc1)NC(=O)CNC(=O)[C@H](CC(N)=O)NC(=O)[C@@H](N)CCSC)C(=O)N[C@@H](CC(C)C)C(=O)NCC(=O)N[C@@H](CCCCN)C(=O)N[C@@H](Cc1ccccc1)C(=O)N[C@@H](Cc1ccccc1)C(=O)N[C@@H](CC(=O)O)C(=O)N[C@H](C(=O)N[C@@H](C)C(=O)N[C@@H](CCCCN)C(=O)N[C@@H](CCCCN)C(=O)N[C@H](C(=O)N[C@@H](CC(C)C)C(=O)N[C@@H](CC(=O)O)C(=O)N[C@H](C(=O)N[C@H](C(=O)N[C@@H](Cc1ccccc1)C(=O)N[C@@H](CCC(N)=O)C(=O)N[C@@H](CCCCN)C(=O)O)[C@@H](C)CC)[C@@H](C)O)[C@@H](C)CC)C(C)C [MNGFILGKFFDVAKKILDTIFQK] | 1.22 µM (≈ 3.26 µg/mL) | – | – | – | – | – | – | – | – | – | – | – | – | – | – | – | – | – | – | – | –
